In US7932255B2, “2-aminocarbonyl substituted piperazine or diaza-cyclic compounds as apoptosis protein inhibitors (lap) modulators” (Novartis AG, priority 2006, dated 2011):
pIC50: −log10 of the molar value. Where no end group is shown, it is not given here.

Experiments:
GST-BIR3 fusion protein = assay: FMAT Smac peptide / GST-BIR3 competition assay; assay type: binding; conditions: competing GST-BIR3 off the FMAT beads; read-out: IC50 for non-biotinylated Smac (FMAT)
Procedure: In order to measure the ability of the inventive compounds to bind the BIR3 peptide binding pocket, a solution phase assay on the FMAT or ELISA technology platform is utilized.
Biotinylated Smac 7-mer peptide (AVPIAQK, lysine ε-amino group is biotinylated) is immobilized on streptavidin coated beads. GST-BIR3 fusion protein is precipitated with FMAT beads and is detected using fluorescent tagged anti-GST antibodies. […] The IC50 for non-biotinylated Smac is 400 nM.

XIAP = target: T1, XIAP (Homo sapiens, UniProt P98170); assay: Disruption of the Smac peptide-(XIAP)BIR3 protein-protein interaction (Tables 2 and 3); assay type: binding; conditions: Series A compounds, Table 2; read-out: XIAP IC50
T1 construct: GST
How it was run: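 Compounds compete with immobilized Smac peptide for the XIAP BIR3 pocket. Percent inhibition at 4 concentrations (usually 3- or 10-fold series from 10 μM); IC50 by logarithmic regression, normalized to an average reference-inhibitor IC50.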

T1 sequence (P98170 248-358 limits assumed, species assumed): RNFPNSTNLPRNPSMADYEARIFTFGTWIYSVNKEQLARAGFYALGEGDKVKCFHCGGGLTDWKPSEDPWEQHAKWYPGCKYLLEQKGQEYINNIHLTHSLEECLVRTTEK

| Compound | pIC50 (GST-BIR3 fusion protein) | pIC50 (XIAP) |
| --- | --- | --- |
| AVPIAQK [non-biotinylated Smac] | 6.40 |  |
| CN[C@@H](C)C(=O)N[C@H](C(=O)N1CCN(CCC(F)(F)F)C[C@H]1C(=O)NC1CCCc2ccccc21)C(C)C (stereo partly drawn) [Compound 20, (S)-1-[(S)-3-Methyl-2-((S)-2-methylamino-propionylamino)-butyryl]-4-(3,3,3-trifluoro-propyl)-piperazine-2-carboxylic acid (1,2,3,4-tetrahydro-naphthalen-1-yl)-amide] |  | > 5.00 |
| CN[C@@H](C)C(=O)N[C@H](C(=O)N1CCN(Cc2cccc3[nH]ccc23)C[C@H]1C(=O)NC1CCCc2ccccc21)C(C)C (stereo partly drawn) [Compound 15, (S)-4-(1H-Indol-4-ylmethyl)-1-[(S)-3-methyl-2-((S)-2-methylamino-propionylamino)-butyryl]-piperazine-2-carboxylic acid (1,2,3,4-tetrahydro-naphthalen-1-yl)-amide] |  | > 5.00 |
| C[C@@H](C(=O)N[C@H](C(=O)N1CCN(Cc2ccccc2)C[C@H]1C(=O)N[C@@H]1CCCc2ccccc21)C1CCCCC1)N(C)C(=O)OC(C)(C)C [Compound 58, [(S)-1-((S)-2-{(S)-4-Benzyl-2-[(R)-(1,2,3,4-tetrahydro-naphthalen-1-yl)carbamoyl]-piperazin-1-yl}-1-cyclohexyl-2-oxo-ethylcarbamoyl)-ethyl]-methyl-carbamic acid tert-butyl ester] |  | < 5.00 |
| CN[C@@H](C)C(=O)N[C@H](C(=O)N1CCN(CCc2ccccc2)C[C@H]1C(=O)NC1CCCc2ccccc21)C(C)C (stereo partly drawn) [Compound 46, (S)-1-[(S)-3-Methyl-2-((S)-2-methylamino-propionylamino)-butyryl]-4-phenethyl-piperazine-2-carboxylic acid (1,2,3,4-tetrahydro-naphthalen-1-yl)-amide] |  | > 5.00 |
